Experimental data as given in US10233191B2, “Fused piperidine amides as modulators of ion channels” (Vertex Pharmaceuticals Incorporated, priority 2013, dated 2019).

Target: T1, NaV 1.7 (Homo sapiens, UniProt Q15858)
T1 construct: expressed in transfected cells; host or cells: HEK cells
Assay: E-VIPR optical membrane potential assay with electrical stimulation
Type: cell-based
Settings: active against one or more sodium channels; assay/subtype not specified in Table 4; read-out: IC50 Binned Activity Data
Source text: E-VIPR Optical Membrane Potential Assay Method with Electrical Stimulation
Sodium channels are voltage-dependent proteins that can be activated by inducing membrane voltage changes by applying electric fields. The electrical stimulation instrument and methods of use are described in Ion Channel Assay Methods PCT/US01/21652, herein incorporated by reference and are referred to as E-VIPR. The instrument comprises a microtiter plate handler, an optical system for exciting the coumarin dye while simultaneously recording the coumarin and oxonol emissions, a waveform generator, a current- or voltage-controlled amplifier, and a device for inserting electrodes in well. Under integrated computer control, this instrument passes user-programmed electrical stimulus protocols to cells within the wells of the microtiter plate.
24 hours before the assay on E-VIPR, HEK cells expressing human NaV subtype, like NaV 1.7, are seeded in 384-well poly-lysine coated plates at 15,000-20,000 cells per well. Other subtypes are performed in an analogous mode in a cell line expressing the NaV of interest. HEK cells are grown in media (exact composition is specific to each cell type and NaV subtype) supplemented with 10% FBS (Fetal Bovine Serum, qualified; GibcoBRL #16140-071) and 1% Pen-Strep (Penicillin-Streptomycin; GibcoBRL #15140-122). Cells are grown in vented cap flasks, in 90% humidity and 10% CO2, to 100% confluence. They are usually split by trypsinization 1:10 or 1:20, depending on scheduling needs, and grown for 2-3 days before the next split.
• 100 mg/mL Pluronic F-127 (Sigma #P2443), in dry DMSO • Compound Plates: 384-well round bottom plate, e.g. Corning 384-well Polypropylene Round Bottom #3656 • Cell Plates: 384-well tissue culture treated plate, e.g. Greiner #781091-1B • 10 mM DiSBAC6(3) (Aurora #00-100-010) in dry DMSO • 10 mM CC2-DMPE (Aurora #00-100-008) in dry DMSO • 200 mM ABSC1 in H2O
Bath1 buffer. Glucose 10 mM (1.8 g/L), Magnesium Chloride (Anhydrous), 1 mM (0.095 g/L), Calcium Chloride, 2 mM (0.222 g/L), HEPES 10 mM (2.38 g/L), Potassium Chloride, 4.5 mM (0.335 g/L), Sodium Chloride 160 mM (9.35 g/L).
Hexyl Dye Solution: Bath1 Buffer+0.5% β-cyclodextrin (make this prior to use, Sigma #C4767), 8 μM CC2-DMPE+2.5 μM DiSBAC6(3). To make the solution Add volume of 10% Pluronic F127 stock equal to volumes of CC2-DMPE+DiSBAC6(3). The order of preparation is first mix Pluronic and CC2-DMPE, then add DiSBAC6(3) while vortexing, then add Bath1+β-Cyclodextrin.
1) Pre-spot compounds (in neat DMSO) into compound plates. Vehicle control (neat DMSO), the positive control (20 mM DMSO stock tetracaine, 125 μM final in assay) and test compounds are added to each well at 160× desired final concentration in neat DMSO. Final compound plate volume will be 80 μL (80-fold intermediate dilution from 1 μL DMSO spot; 160-fold final dilution after transfer to cell plate). Final DMSO concentration for all wells in assay is 0.625%.
2) Prepare Hexyl Dye Solution.
3) Prepare cell plates. On the day of the assay, medium is aspirated and cells are washed three times with 100 μL of Bath1 Solution, maintaining 25 μL residual volume in each well.
4) Dispense 25 μL per well of Hexyl Dye Solution into cell plates. Incubate for 20-35 minutes at room temp or ambient conditions.
5) Dispense 80 μL per well of Bath1 into compound plates. Acid Yellow-17 (1 mM) is added and Potassium Chloride can be altered from 4.5 to 20 mM depending on the NaV subtype and assay sensitivity.
6) Wash cell plates three times with 100 μL per well of Bath1, leaving 25 μL of residual volume. Then transfer 25 uL per well from Compound Plates to Cell Plates. Incubate for 20-35 minutes at room temp/ambient condition
7) Read Plate on E-VIPR. Use the current-controlled amplifier to deliver stimulation wave pulses for typically 9 seconds and a scan rate of 400 Hz. A pre-stimulus recording is performed for 0.5 seconds to obtain the un-stimulated intensities baseline. […]

T1 sequence (Q15858 whole entry): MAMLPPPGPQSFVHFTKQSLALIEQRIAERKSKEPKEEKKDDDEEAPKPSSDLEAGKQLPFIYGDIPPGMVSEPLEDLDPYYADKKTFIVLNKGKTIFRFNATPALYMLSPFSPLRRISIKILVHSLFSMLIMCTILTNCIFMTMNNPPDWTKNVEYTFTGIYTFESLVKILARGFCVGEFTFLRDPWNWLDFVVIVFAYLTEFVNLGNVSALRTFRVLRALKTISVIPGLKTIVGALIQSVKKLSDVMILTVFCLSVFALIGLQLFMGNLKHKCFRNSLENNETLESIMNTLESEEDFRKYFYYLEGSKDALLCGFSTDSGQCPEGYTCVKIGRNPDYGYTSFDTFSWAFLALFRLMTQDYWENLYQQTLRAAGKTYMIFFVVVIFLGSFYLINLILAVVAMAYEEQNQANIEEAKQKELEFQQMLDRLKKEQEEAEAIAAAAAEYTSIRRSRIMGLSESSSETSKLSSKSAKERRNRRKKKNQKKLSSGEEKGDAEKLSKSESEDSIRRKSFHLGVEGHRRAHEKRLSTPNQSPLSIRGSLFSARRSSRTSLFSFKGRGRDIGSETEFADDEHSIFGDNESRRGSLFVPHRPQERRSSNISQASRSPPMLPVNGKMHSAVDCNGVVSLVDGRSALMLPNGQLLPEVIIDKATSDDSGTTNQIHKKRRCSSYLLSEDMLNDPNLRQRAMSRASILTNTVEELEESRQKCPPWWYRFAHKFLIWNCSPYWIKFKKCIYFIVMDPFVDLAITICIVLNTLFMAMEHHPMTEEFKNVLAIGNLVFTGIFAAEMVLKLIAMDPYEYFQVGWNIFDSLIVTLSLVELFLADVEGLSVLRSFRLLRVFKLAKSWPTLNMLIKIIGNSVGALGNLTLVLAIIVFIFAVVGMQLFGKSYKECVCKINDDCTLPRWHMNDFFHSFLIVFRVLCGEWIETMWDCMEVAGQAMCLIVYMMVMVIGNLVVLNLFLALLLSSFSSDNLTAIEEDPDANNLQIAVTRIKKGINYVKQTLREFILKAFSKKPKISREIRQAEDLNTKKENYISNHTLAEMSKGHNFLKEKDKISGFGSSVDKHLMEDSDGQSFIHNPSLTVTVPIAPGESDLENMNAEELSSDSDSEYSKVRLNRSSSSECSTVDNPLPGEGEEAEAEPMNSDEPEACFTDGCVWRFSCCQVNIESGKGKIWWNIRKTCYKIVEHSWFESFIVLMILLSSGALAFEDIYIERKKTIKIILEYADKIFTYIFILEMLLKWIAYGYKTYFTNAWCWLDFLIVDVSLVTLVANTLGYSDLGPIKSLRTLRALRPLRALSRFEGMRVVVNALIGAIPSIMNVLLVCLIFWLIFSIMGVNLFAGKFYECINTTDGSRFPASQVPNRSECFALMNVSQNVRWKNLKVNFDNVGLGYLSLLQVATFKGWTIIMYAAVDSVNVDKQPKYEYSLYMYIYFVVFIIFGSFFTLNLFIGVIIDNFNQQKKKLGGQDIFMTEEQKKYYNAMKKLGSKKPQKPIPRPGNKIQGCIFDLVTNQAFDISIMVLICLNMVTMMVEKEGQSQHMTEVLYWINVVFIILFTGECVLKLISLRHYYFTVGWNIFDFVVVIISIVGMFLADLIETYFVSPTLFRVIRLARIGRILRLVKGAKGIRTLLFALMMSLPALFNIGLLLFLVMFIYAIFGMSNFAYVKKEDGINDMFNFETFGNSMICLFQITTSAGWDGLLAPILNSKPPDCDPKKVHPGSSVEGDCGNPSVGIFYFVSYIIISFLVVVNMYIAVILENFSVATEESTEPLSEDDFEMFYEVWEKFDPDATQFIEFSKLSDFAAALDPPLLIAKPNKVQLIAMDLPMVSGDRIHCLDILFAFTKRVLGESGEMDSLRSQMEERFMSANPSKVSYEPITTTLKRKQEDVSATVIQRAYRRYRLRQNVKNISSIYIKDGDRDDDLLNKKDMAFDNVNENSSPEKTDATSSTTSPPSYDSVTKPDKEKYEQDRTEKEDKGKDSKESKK

Row | Structure (SMILES) | IC50 [µM]
1 | COc1cc(C(=O)N2CCC3(c4ccccc4)CC3C2)ccc1OCC1CCCO1 (stereo not drawn) [Compound 65] | ≤ 2
2 | Cc1nc(C(=O)N2CC[C@]3(c4ncccc4Cl)OCOC3C2)ccc1OC(C)C (stereo partly drawn) [Compound 67] | ≤ 2
3 | COc1cc(C(=O)N2CCC3(c4ccccn4)OCOC3C2)ccc1OCCOC(F)(F)F (stereo not drawn) [Compound 68] | ≤ 2
4 | CC(C)(C)OCCOc1ccc(C(=O)N2CC[C@]3(c4ccccn4)OCOC3C2)cc1Cl (stereo partly drawn) [Compound 69] | ≤ 2
5 | COc1cc(C(=O)N2CC[C@]3(c4ccccc4)OCOC3C2)ccc1OCC(C)(C)F (stereo partly drawn) [Compound 71] | ≤ 2
6 | COc1cc(C(=O)N2CC[C@]3(c4ccccn4)OCO[C@@H]3C2)ccc1OC(C)C(F)(F)F (stereo partly drawn) [Compound 72] | ≤ 2
7 | Cc1cc(C(=O)N2CC[C@@]3(c4ccccc4)OCOC3C2)ccc1OCC(C)(C)O (stereo partly drawn) [Compound 73] | ≤ 2
8 | Cc1nc([C@]23CCN(C(=O)c4ccc(OCC(C)(C)F)c(C)c4)CC2OCO3)cs1 (stereo partly drawn) [Compound 74] | ≤ 2
9 | Cc1cc(C(=O)N2CC[C@]3(c4ccccc4)OCOC3C2)ccc1OCC(C)(C)O (stereo partly drawn) [Compound 75] | ≤ 2
10 | O=C(c1cccc2cccnc12)N1CC[C@]2(c3ccccc3)OCOC2C1 (stereo partly drawn) [Compound 76] | ≤ 2
11 | Cc1cc(C(=O)N2CC[C@]3(c4ccccc4)OCOC3C2)ccc1OC(C)C (stereo partly drawn) [Compound 77] | ≤ 2
12 | COc1cc(C(=O)N2CC[C@@]3(c4csc(C)n4)OCOC3C2)ccc1OCCOC(F)(F)F (stereo partly drawn) [Compound 78] | ≤ 2
13 | Cc1cc(C(=O)N2CC[C@]3(c4cccc(OCC(C)C)n4)OCOC3C2)ccc1OCCOC(F)(F)F (stereo partly drawn) [Compound 80] | ≤ 2
14 | Cc1cc(C(=O)N2CC[C@@]3(c4ccccc4)OCOC3C2)ccc1OC(C)C (stereo partly drawn) [Compound 81] | 2 to 5
15 | Cc1cc(C(=O)N2CC[C@@]3(c4nccs4)OCOC3C2)ccc1OCC(C)(C)F (stereo partly drawn) [Compound 82] | ≤ 2
16 | COc1cc(C(=O)N2CC[C@]3(c4nccs4)OCOC3C2)ccc1OCCOC(F)(F)F (stereo partly drawn) [Compound 85] | ≤ 2
17 | COc1cc(C(=O)N2CC[C@@]3(c4nccs4)OCOC3C2)ccc1OCCOC(F)(F)F (stereo partly drawn) [Compound 86] | ≤ 2
18 | CC(C)(C)OCCOc1ccc(C(=O)N2CC[C@]3(c4ncccc4OCCOC(C)(C)C)OCOC3C2)cc1Cl (stereo partly drawn) [Compound 87] | ≤ 2

Row | Structure (SMILES) | IC50 [µM]
19 | COc1cc(C(=O)N2CC[C@]3(c4ccccn4)OCOC3C2)ccc1OCC1CC(F)(F)C1 (stereo partly drawn) [Compound 90] | ≤ 2
20 | COc1cc(C(=O)N2CC[C@]3(c4ccccc4)OCOC3C2)ccc1C(C)(C)CO (stereo partly drawn) [Compound 91] | ≤ 2
21 | COc1cc(C(=O)N2CC[C@]3(c4ccccn4)OCOC3C2)ccc1OCCOC(F)(F)F (stereo partly drawn) [Compound 92] | ≤ 2
22 | COc1cc(C(=O)N2CC[C@]3(c4ncccc4F)OCOC3C2)ccc1OCCOC(F)(F)F (stereo partly drawn) [Compound 93] | ≤ 2
23 | COc1cccnc1[C@]12CCN(C(=O)c3ccc(OCCOC(F)(F)F)c(Cl)c3)CC1OCO2 (stereo partly drawn) [Compound 94] | ≤ 2
24 | Cc1cc(C(=O)N2CC[C@]3(c4ccccn4)OCOC3C2)ccc1OCC(C)(C)F (stereo partly drawn) [Compound 95] | ≤ 2
25 | COc1nc(C(=O)N2CC[C@]3(c4ncccc4F)OCOC3C2)ccc1OCCOC(F)(F)F (stereo partly drawn) [Compound 96] | ≤ 2
26 | COc1cc(C(=O)N2CC[C@]3(c4ccc(F)cc4)OCOC3C2)ccc1OCCOC(F)(F)F (stereo partly drawn) [Compound 99] | ≤ 2
27 | Cc1cc(C(=O)N2CC[C@]3(c4ncccc4F)OCOC3C2)ccc1OCC(C)(C)F (stereo partly drawn) [Compound 100] | ≤ 2
28 | COc1cc(C(=O)N2CC[C@]3(c4ccccn4)OCOC3C2)cc(Cl)c1OCCOC(F)(F)F (stereo partly drawn) [Compound 105] | ≤ 2
29 | CC(F)(F)COc1ccc(C(=O)N2CC[C@]3(c4ccccn4)OCOC3C2)cc1Cl (stereo partly drawn) [Compound 106] | ≤ 2
30 | COc1nc(C(=O)N2CC[C@]3(c4ccccn4)OCOC3C2)ccc1OCCOC(F)(F)F (stereo partly drawn) [Compound 107] | ≤ 2
31 | Cc1cc(C(=O)N2CC[C@@]3(c4ccc(F)cc4)OCOC3C2)ccc1OCC(C)(C)F (stereo partly drawn) [Compound 109] | ≤ 2
32 | CC(C)(F)COc1ccc(C(=O)N2CC[C@]3(c4ccccn4)OCOC3C2)cc1Cl (stereo partly drawn) [Compound 110] | ≤ 2
33 | Cc1cc(C(=O)N2CC[C@@]3(c4ccccc4)C[C@@H]3C2)ccc1OCC(C)(C)O [Compound 114] | ≤ 2
34 | COc1cc(C(=O)N2CCC3(c4ccccc4)CC3C2)ccc1C(C)(C)CO (stereo not drawn) [Compound 115] | ≤ 2
35 | O=C(c1ccc(OCCOC(F)(F)F)c(Cl)c1)N1CC[C@@]2(c3ccccn3)COC2C1 (stereo partly drawn) [Compound 116] | ≤ 2

More lines, now with the values ahead:

Row | IC50 [µM] | Structure (SMILES)
36 | ≤ 2 | COc1cc(C(=O)N2CC[C@@]3(c4ccccn4)COC[C@H]3C2)ccc1OCCOC(F)(F)F [Compound 64]
37 | ≤ 2 | COc1cc(C(=O)N2CCC3(c4ccccn4)OCCC3C2)ccc1OCCOC(F)(F)F (stereo not drawn) [Compound 66]
38 | ≤ 2 | Cc1cc(C(=O)N2CC[C@]3(c4nccs4)OCOC3C2)ccc1OCC(F)(F)F (stereo partly drawn) [Compound 70]
39 | ≤ 2 | Cc1cc(C(=O)N2CCC3(c4ccccc4)CC3C2)ccc1OC(C)C (stereo not drawn) [Compound 79]
40 | ≤ 2 | COc1cc(C(=O)N2CCC3(c4ccccc4)CC3C2)ccc1COCC(F)(F)F (stereo not drawn) [Compound 83]
41 | ≤ 2 | O=C(c1ccc(OCC2CC2(F)F)c(C(F)(F)F)c1)N1CC[C@]2(c3ccccn3)OCOC2C1 (stereo partly drawn) [Compound 84]
42 | ≤ 2 | COc1nc(C(=O)N2CC[C@]3(c4csc(C)n4)OCOC3C2)ccc1OCCOC(F)(F)F (stereo partly drawn) [Compound 88]
43 | ≤ 2 | COc1cccnc1[C@]12CCN(C(=O)c3ccc(OCCOC(F)(F)F)c(C)c3)CC1OCO2 (stereo partly drawn) [Compound 89]
44 | ≤ 2 | Cc1cc(C(=O)N2CC[C@]3(c4nccs4)OCOC3C2)ccc1OCC(C)(C)F (stereo partly drawn) [Compound 97]
45 | ≤ 2 | COc1cc(OC(C)C)ccc1C(=O)N1CCC2(c3ccccc3)CC2C1 (stereo not drawn) [Compound 98]
46 | ≤ 2 | COc1cc(C(=O)N2CC[C@]3(c4ccccn4)CC3C2)ccc1OCCOC(F)(F)F (stereo partly drawn) [Compound 101]
47 | ≤ 2 | COc1cc(C(=O)N2CC[C@]3(c4ccccc4)OCOC3C2)ccc1OCCC(F)(F)F (stereo partly drawn) [Compound 102]
48 | ≤ 2 | CCOc1nc(C(=O)N2CC[C@]3(c4csc(C)n4)OCOC3C2)ccc1OCCOC(F)(F)F (stereo partly drawn) [Compound 103]
49 | ≤ 2 | COc1cc(C(=O)N2CC[C@]3(c4ccccc4)CC3C2)ccc1OCC(C)(C)O (stereo partly drawn) [Compound 104]
50 | ≤ 2 | O=C(c1ccc(OCCOCC(F)(F)F)c(Cl)c1)N1CC[C@]2(c3ccccn3)OCOC2C1 (stereo partly drawn) [Compound 108]
51 | ≤ 2 | COc1nc(C(=O)N2CC[C@]3(c4nccs4)OCOC3C2)ccc1OCCOC(F)(F)F (stereo partly drawn) [Compound 111]
52 | ≤ 2 | COc1ccnc(C23CCN(C(=O)c4ccc(OCCOC(F)(F)F)c(OC)c4)CC2OCO3)c1 (stereo not drawn) [Compound 112]
53 | ≤ 2 | Cc1cc(C(=O)N2CCC3(c4ccccc4)CC3C2)ccc1C(C)(C)O (stereo not drawn) [Compound 113]
54 | ≤ 2 | COc1cc(C(=O)N2CC[C@]3(c4ccccc4)OCOC3C2)ccc1OC(C)C(F)(F)F (stereo partly drawn) [Compound 117]
